{"source": "paper PMC8242467", "about": "(Cell Reports, 2021)", "target": "T1, mitochondrial calcium uniporter (MCU) (Homo sapiens, UniProt Q8NE86)", "T1 sequence (Q8NE86 51-351)": "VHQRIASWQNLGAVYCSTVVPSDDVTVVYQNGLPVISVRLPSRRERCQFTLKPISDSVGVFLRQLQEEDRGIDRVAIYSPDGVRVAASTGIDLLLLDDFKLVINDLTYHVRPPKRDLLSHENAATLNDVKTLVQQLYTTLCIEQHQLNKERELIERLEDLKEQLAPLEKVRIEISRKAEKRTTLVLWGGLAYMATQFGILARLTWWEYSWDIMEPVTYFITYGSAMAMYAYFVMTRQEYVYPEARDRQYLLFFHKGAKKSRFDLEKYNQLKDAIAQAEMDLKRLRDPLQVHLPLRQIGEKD", "assay": "mitochondrial Ca2+ uptake in permeabilized HeLa cells", "format": "cell-based", "note": "Where a name gives a salt, the structure may show the parent alone."}
{"smiles": "CCC(C)(C)c1ccc(CC(C)CN2C[C@@H](C)O[C@@H](C)C2)cc1", "note": "(stereo partly drawn) [amorolfine, (2R,6S)-2,6-dimethyl-4-[2-methyl-3-[4-(2-methylbutan-2-yl)phenyl]propyl]morpholine;hydrochloride]", "values": [{"measurement": "EC50", "value": 86.9, "unit": "µM"}]}
